Results published in patent US11535598B2, “Histone deacetylases (HDACs) inhibitors” (ANNJI PHARMACEUTICAL CO., LTD., priority 2017, dated 2022).

How the values were obtained:
Human HDAC1 = Human HDAC1 (Homo sapiens (Human), UniProt Q13547); assay: HDAC enzymatic assay, HDAC1; assay type: biochemical; settings: 10-dose IC50 mode with a 3-fold serial dilution; read-out: HDAC subtypes IC50 HDAC1
Method: (§1) The IC50 values for aforementioned compounds against HDACs were determined. HDAC 1 to 11 can be assayed by using acetylated AMC-labeled peptide substrate.
(§2) Human HDAC1 GenBank Accession No. NM_004964): Full length with C-terminal GST tag, MW=79.9 kDa, Human HDAC2 (GenBank Accession No. Q92769): Full length with C-terminal His tag, MW=60 kDa. Human HDAC3/NcoR2 (GenBank Accession No. […] for HDAC3, GenBank Accession No. NM_006312 for NcoR2): Complex of human HDAC3, full length with C-terminal His tag, MW=49.7 kDa, and human NCOR2, N-terminal GST tag, MW=39 kDa. Human HDAC6 (GenBank Accession No. BC069243): Full length with N-terminal GST tag, MW=159 kDa. Human HDAC8 (GenBank Accession No. NM018486): Full length, MW=42 kDa, expressed in an E. coli expression system.
(§3) Human HDAC1, Human HDAC2, Human HDAC3/NcoR2, Human HDAC6, Human HDAC10, and Human HDAC11 were all expressed by baculovirus expression system in Sf9 cells.
(§4) 50 μM HDAC substrate. 1% DMSO final. Incubation for 2 hours at 30° C.

Human HDAC8 = Human HDAC8 (Homo sapiens (Human), UniProt Q9BY41); assay: HDAC enzymatic assay, HDAC8; assay type: biochemical; settings: 10-dose IC50 mode with a 3-fold serial dilution; read-out: HDAC subtypes IC50 HDAC8
Method: as §1, §2, §4

Human HDAC6 = Human HDAC6 (Homo sapiens (Human), UniProt Q9UBN7); assay: HDAC enzymatic assay, HDAC6; assay type: biochemical; settings: 10-dose IC50 mode with a 3-fold serial dilution; read-out: HDAC subtypes IC50 HDAC6
Method: as §1, §2, §3, §4

Human HDAC11 = Human HDAC11 (Homo sapiens (Human), UniProt Q96DB2); assay: HDAC enzymatic assay, HDAC11; assay type: biochemical; settings: 10-dose IC50 mode with a 3-fold serial dilution; read-out: HDAC subtypes IC50 HDAC11
Method: as §1, §2, §3, §4

U87MG = settings: human, 72 h
LNCap = settings: human, 72 h
A549 = settings: human, 72 h
PANC1 = settings: human, 72 h
HepG2 = settings: human, 72 h
in vitro [1] = settings: human
in vitro [2] = settings: monkey
HL60 = assay: Cell proliferation assay MTT, HL60; settings: read-out: Cytotoxicity IC50 Leukemia HL60, 72 hr treated
MV4-11 = assay: Cell proliferation assay MTT, MV4-11; settings: human, MV4-11 leukemia cells, 72 h
MOLM13 = assay: Cell proliferation assay MTT, MOLM13; settings: human, MOLM13 leukemia cells, 72 h

Human HDAC11, sequence (Q96DB2 whole entry): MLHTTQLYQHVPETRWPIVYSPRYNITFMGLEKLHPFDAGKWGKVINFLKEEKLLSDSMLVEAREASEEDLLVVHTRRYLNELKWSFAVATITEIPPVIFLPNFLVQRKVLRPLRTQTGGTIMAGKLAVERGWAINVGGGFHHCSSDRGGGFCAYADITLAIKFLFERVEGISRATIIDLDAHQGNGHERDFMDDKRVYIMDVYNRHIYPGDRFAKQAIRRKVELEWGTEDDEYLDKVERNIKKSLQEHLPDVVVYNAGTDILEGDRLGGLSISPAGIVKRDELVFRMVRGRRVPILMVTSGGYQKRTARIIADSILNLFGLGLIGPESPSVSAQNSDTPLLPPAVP
Human HDAC6, sequence (Q9UBN7 whole entry): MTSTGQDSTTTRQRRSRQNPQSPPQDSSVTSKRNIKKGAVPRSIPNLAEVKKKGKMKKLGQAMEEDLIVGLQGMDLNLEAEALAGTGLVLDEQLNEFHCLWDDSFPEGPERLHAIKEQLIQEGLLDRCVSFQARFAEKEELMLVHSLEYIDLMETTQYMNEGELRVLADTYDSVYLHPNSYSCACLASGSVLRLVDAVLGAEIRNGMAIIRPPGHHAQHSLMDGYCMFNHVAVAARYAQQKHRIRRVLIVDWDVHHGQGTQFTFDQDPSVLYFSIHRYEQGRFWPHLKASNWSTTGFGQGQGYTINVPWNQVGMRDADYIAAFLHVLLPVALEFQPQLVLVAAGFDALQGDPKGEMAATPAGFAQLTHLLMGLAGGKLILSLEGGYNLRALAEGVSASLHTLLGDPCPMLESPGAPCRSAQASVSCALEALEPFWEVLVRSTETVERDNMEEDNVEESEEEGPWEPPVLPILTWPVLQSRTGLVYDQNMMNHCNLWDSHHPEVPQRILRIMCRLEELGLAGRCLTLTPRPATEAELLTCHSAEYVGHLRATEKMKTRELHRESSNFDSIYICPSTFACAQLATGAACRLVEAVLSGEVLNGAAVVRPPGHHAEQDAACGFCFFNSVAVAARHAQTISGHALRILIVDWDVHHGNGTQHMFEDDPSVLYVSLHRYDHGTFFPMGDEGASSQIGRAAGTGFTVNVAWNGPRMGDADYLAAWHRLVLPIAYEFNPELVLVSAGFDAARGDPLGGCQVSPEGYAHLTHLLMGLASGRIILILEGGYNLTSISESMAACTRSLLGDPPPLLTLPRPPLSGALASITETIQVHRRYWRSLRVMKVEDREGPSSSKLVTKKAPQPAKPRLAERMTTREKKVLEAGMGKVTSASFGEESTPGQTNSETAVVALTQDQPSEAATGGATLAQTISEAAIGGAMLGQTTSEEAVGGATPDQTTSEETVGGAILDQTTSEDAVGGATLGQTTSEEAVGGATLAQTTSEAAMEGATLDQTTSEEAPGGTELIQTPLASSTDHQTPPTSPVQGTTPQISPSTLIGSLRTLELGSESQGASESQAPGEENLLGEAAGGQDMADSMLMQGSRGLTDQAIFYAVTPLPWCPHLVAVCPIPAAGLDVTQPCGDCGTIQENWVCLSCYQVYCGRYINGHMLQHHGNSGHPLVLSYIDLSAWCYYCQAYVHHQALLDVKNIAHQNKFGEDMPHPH
Human HDAC1, sequence (Q13547 whole entry): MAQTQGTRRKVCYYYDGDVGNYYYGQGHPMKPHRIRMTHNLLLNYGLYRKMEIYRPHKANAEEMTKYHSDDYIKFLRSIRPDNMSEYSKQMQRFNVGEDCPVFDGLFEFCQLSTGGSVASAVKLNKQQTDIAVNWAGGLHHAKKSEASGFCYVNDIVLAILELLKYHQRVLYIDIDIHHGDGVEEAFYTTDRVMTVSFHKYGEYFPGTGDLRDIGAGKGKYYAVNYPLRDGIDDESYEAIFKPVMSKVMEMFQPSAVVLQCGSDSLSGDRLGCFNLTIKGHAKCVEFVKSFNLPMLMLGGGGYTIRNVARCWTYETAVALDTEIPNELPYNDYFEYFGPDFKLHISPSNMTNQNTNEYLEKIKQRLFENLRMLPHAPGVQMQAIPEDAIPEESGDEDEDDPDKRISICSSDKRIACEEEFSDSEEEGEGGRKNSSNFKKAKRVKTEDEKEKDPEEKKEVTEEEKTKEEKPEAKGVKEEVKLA
Human HDAC8, sequence (Q9BY41 whole entry): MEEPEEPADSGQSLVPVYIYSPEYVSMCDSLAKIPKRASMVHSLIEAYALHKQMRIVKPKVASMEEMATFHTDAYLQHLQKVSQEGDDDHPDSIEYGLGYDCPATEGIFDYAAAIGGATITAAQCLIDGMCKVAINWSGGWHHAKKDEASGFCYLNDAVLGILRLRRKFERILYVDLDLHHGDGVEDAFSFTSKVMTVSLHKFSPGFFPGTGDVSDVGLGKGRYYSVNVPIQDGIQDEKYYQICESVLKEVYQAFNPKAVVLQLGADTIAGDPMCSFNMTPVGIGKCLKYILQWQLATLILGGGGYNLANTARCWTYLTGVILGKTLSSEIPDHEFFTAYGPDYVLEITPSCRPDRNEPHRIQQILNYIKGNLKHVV

| IC50 (Human HDAC1) [µM] | IC50 (Human HDAC8) [µM] | IC50 (Human HDAC6) [µM] | IC50 (Human HDAC11) [µM] | IC50 (U87MG) [µM] | IC50 (LNCap) [µM] | IC50 (A549) [µM] | IC50 (PANC1) [µM] | IC50 (HepG2) [µM] | IC50 at 72 h (in vitro [1]) [µM] | IC50 at 72 h (in vitro [2]) [µM] | SMILES | IC50 (HL60) [µM] | IC50 (MV4-11) [µM] | IC50 (MOLM13) [µM] |
| --- | --- | --- | --- | --- | --- | --- | --- | --- | --- | --- | --- | --- | --- | --- |
| 9.41 | 0.095 | 0.008 | 15.4 |  |  |  |  |  |  |  | O=C(NO)c1ccc(Cn2c(=O)n(CCc3ccccc3)c(=O)c3ccc(F)cc32)cc1 [Compound 1, 4-((7-fluoro-2,4-dioxo-3-phenethyl-3,4-dihydroquinazolin-1(2H)-yl)methyl)-N-hydroxybenzamide] |  |  |  |
| 12 | 0.731 | 0.051 |  | > 10 | > 10 | > 10 | > 10 | > 10 | > 200 | > 10 | COc1ccc2c(=O)n(CCc3ccccc3)c(=O)n(Cc3ccc(C(=O)NO)cc3)c2c1 [Compound 2, N-hydroxy-4-((7-methoxy-2,4-dioxo-3-phenethyl-3,4-dihydroquinazol-1(2H)-yl)methyl)benzamide] |  |  |  |
| > 10 | 0.653 | 4.3 | > 10 | 3.75 ± 0.13 | 3.4 ± 0.21 | 4.03 ± 0.12 | 5.12 ± 0.32 | 3.41 ± 0.34 | 69.23 ± 0.27 | 78.42 ± 0.22 | O=C(NO)c1cccc(Cn2c(=O)n(CCc3ccccc3)c(=O)c3ccccc32)c1 [Compound 6, 3-((2,4-dioxo-3-phenethyl-3,4-dihydroquinazolin-1(2H)-yl)methyl)-N-hydroxybenzamide] |  |  |  |
| > 10 | 0.235 | 4.45 |  |  |  |  |  |  |  |  | N#Cc1ccc2c(=O)n(CCc3ccccc3)c(=O)n(Cc3cccc(C(=O)NO)c3)c2c1 [Compound 7, 3-((7-cyano-2,4-dioxo-3-phenethyl-3,4-dihydroquinazolin-1(2H)-yl)methyl)-N-hydroxybenzamide] |  |  |  |
| 2.72 | 0.523 | 0.004 |  | 7.63 ± 0.12 | 4.72 ± 0.16 | 8.15 ± 0.17 | 9.04 ± 0.21 | 6.65 ± 0.22 | 85.33 ± 0.34 | 93.24 ± 0.37 | Cn1c(=O)c2ccc(Cl)cc2n(Cc2ccc(C(=O)NO)cc2)c1=O [Compound 10, 4-((7-chloro-3-methyl-2,4-dioxo-3,4-dihydroquinazolin-1(2H)-yl)methyl)-N-hydroxybenzamide] |  |  |  |
| 15.8 | 0.486 | 0.024 | 37.5 | 4.08 ± 0.11 | 2.93 ± 0.62 | 4.78 ± 0.11 | 6.13 ± 0.17 | 4.39 ± 0.07 | 89.18 ± 0.62 | 97.25 ± 0.31 | O=C(NO)c1ccc(Cn2c(=O)n(Cc3ccccc3)c(=O)c3ccccc32)cc1 [Compound 11, 4-((3-benzyl-2,4-dioxo-3,4-dihydroquinazolin-1(2H)-yl)methyl)-N-hydroxybenzamide] |  |  |  |
| 11.2 | 1.07 | 0.028 | 25.1 | 9.12 ± 0.23 | 7.53 ± 0.23 | > 10 | > 10 | > 10 | 159.1 ± 0.44 | 166.4 ± 0.39 | O=C(NO)c1ccc(Cn2c(=O)n(CCc3ccccc3)c(=O)c3cccnc32)cc1 [Compound 12, 4-((2,4-dioxo-3-phenethyl-3,4-dihydropyrido[2,3-d]pyrimidin-1(2H)-yl)methyl)-N-hydroxybenzamide] |  |  |  |
|  |  |  |  | 6.28 ± 0.12 | 6.05 ± 0.31 | 7.07 ± 0.42 | 8.73 ± 0.24 | 6.99 ± 1.07 | 163.2 ± 0.27 | 160.3 ± 0.23 | O=C(Cc1ccc(Cn2c(=O)n(CCc3ccccc3)c(=O)c3ccccc32)cc1)NO [Compound 16, 2-(4-((2,4-dioxo-3-phenethyl-3,4-dihydroquinazolin-1(2H)-yl)methyl)phenyl)-N-hydroxyacetamide] | 2.77 ± 0.04 | 3.04 ± 0.08 | 3.29 ± 0.16 |
|  |  |  |  | 2.64 ± 0.04 | 1.87 ± 0.18 | 2.98 ± 0.12 | 4.29 ± 0.08 | 2.75 ± 0.02 | 32.7 ± 0.03 | 37.82 ± 0.03 | O=C(Cc1ccc(Cn2c(=O)n(CCc3ccccc3)c(=O)c3ccccc32)c(F)c1)NO [Compound 19, 2-(4-((2,4-dioxo-3-phenethyl-3,4-dihydroquinazolin-1(2H)-yl)methyl)-3-fluorophenyl)-N-hydroxyacetamide] | 1.68 ± 0.09 | 1.87 ± 0.03 | 1.74 ± 0.08 |
|  |  |  |  | 9.67 ± 0.66 | 9.97 ± 0.08 | > 10 | > 10 | 7.43 ± 0.27 | > 200 | > 200 | O=C(NO)C(F)(F)c1ccc(Cn2c(=O)n(CCc3ccccc3)c(=O)c3ccccc32)cc1 [Compound 20, 2-(4-((2,4-dioxo-3-phenethyl-3,4-dihydroquinazolin-1(2H)-yl)methyl)phenyl)-2,2-difluoro-N-hydroxyacetamide] |  |  |  |
| 6.66 | 0.169 | 0.015 | 5.69 | 2.93 ± 0.13 | 0.98 ± 0.06 | 3.22 ± 0.31 | 4.72 ± 0.37 | 3.55 ± 0.14 | 63.11 ± 0.17 | 81.51 ± 0.18 | O=C(NO)c1ccc(Cn2c(=O)n(CCc3ccccc3)c(=O)c3ccsc32)cc1 [Compound 21, 4-((2,4-dioxo-3-phenethyl-3,4-dihydrothieno[2,3-d]pyrimidin-1(2H)-yl)methyl)-N-hydroxybenzamide] |  |  |  |
| 10.7 | 0.287 | 0.011 | 10 | 4.18 ± 0.22 | 3.83 ± 0.17 | 4.69 ± 0.17 | > 10 | 4.11 ± 0.27 | 60.41 ± 0.22 | 76.31 ± 0.32 | O=C(NO)c1ccc(Cn2c(=O)n(CCc3cccs3)c(=O)c3ccccc32)cc1 [Compound 24, 4-((2,4-dioxo-3-(2-(thiophen-2-yl)ethyl)-3,4-dihydroquinazolin-1(2H)-yl)methyl)-N-hydroxybenzamide] |  |  |  |
| > 30 | 1.19 | 1.19 | 129 | 5.23 ± 0.21 | 5.77 ± 0.46 | 6.25 ± 0.33 | 8.13 ± 0.28 | 5.31 ± 0.37 | 105.1 ± 0.25 | 106.3 ± 0.29 | O=C(NO)c1cc(Cn2c(=O)n(CCc3ccccc3)c(=O)c3ccccc32)cs1 [Compound 25, 4-((2,4-dioxo-3-phenethyl-3,4-dihydroquinazolin-1(2H)-yl)methyl)-N-hydroxythiophene-2-carboxamide] |  |  |  |
| 14.5 | 3.06 | 0.168 | 10.5 |  |  |  |  |  |  |  | O=C(NO)c1ccc(Cn2c(=O)n(CCc3ccccc3)c(=O)c3ccc(C4CC4)cc32)cc1 [Compound 27, 4-((7-cyclopropyl-2,4-dioxo-3-phenethyl-3,4-dihydroquinazolin-1(2H)-yl)methyl)-N-hydroxybenzamide] |  |  |  |
| 4.38 | 1.42 | 0.025 | 3.8 |  |  |  |  |  |  |  | CNc1ccc(CCn2c(=O)c3ccccc3n(Cc3ccc(C(=O)NO)cc3)c2=O)cc1 [Compound 29, N-hydroxy-4-((3-(4-(methylamino)phenethyl)-2,4-dioxo-3,4-dihydroquinazolin-1(2H)-yl)methyl)benzamide] |  |  |  |
| 9.79 | 0.979 | 0.014 | 22.8 |  |  |  |  |  |  |  | O=C(NO)c1ccc(Cn2c(=O)n(CCc3ccc(N4CCOCC4)cc3)c(=O)c3ccccc32)cc1 [Compound 30, N-hydroxy-4-((3-(4-morpholinophenethyl)-2,4-dioxo-3,4-dihydroquinazolin-1(2H)-yl)methyl)benzamide] |  |  |  |

| SMILES | IC50 (Human HDAC1) [µM] | IC50 (Human HDAC8) [µM] | IC50 (Human HDAC6) [µM] | IC50 (Human HDAC11) [µM] | IC50 (U87MG) [µM] | IC50 (LNCap) [µM] | IC50 (A549) [µM] | IC50 (PANC1) [µM] | IC50 (HepG2) [µM] | IC50 at 72 h (in vitro [1]) [µM] | IC50 at 72 h (in vitro [2]) [µM] | IC50 (HL60) [µM] | IC50 (MV4-11) [µM] | IC50 (MOLM13) [µM] |
| --- | --- | --- | --- | --- | --- | --- | --- | --- | --- | --- | --- | --- | --- | --- |
| O=C(NO)c1ccc(Cn2c(=O)n(CCc3ccccc3O)c(=O)c3ccccc32)cc1 [Compound 18, N-hydroxy-4-((3-(2-hydroxyphenethyl)-2,4-dioxo-3,4-dihydroquinazolin-1(2H)-yl)methyl)benzamide] | 8.83 | 0.4 | 0.006 | 16.7 |  |  |  |  |  |  |  |  |  |  |
